{"source": "paper PMC4644980", "about": "“The FDA-approved natural product dihydroergocristine reduces the production of the Alzheimer’s disease amyloid-β peptides” (Scientific Reports, 2015)", "key": {"[1]": {"target": "γ-secretase (Homo sapiens, UniProt P49768+Q92542)", "assay": "surface plasmon resonance, γ-secretase immobilized", "assay_type": "binding", "design": "made in house", "settings": "SPR, Biacore T100, NTA chip; read-out: equilibrium dissociation constant (Kd), γ-secretase", "description": "(§1) A Biacore sensor Chip NTA that is designed to bind His-tagged proteins was used to immobilize γ-secretase. The SPR assay was performed in a running buffer (10 mM HEPES, 150 mM NaCl in the presence of 1% DMSO, pH 7.4). The purified His-tagged γ-secretase overexpressing human PS1, Flag-Pen-2, Aph-1a2-HA, and NCT-V5/His (see above) was diluted 6 times in DMSO-free running buffer. For each binding curve, the running buffer containing 500 μM NiCl2 was first injected to saturate the NTA chip. Then, His-tagged γ-secretase was injected and immobilized on the Ni^2+ -coated sensor chip. Compounds at the indicated concentrations were injected onto the surface of the sensor chip, and the corresponding binding spectrum was recorded. The sensor chip was regenerated with regeneration buffer (10 mM HEPES, 150 mM NaCl, 350 mM EDTA, pH 8.3). Purified human NCT (100 μg) was immobilized onto the flow cell of a CM5 sensor chip in 10 mM sodium acetate (pH 4.0) by using an amine coupling kit. The SPR assay was performed in HBS-P running buffer (10 mM HEPES, 150 mM NaCl and 0.005% surfactant P20 in the presence of 1% DMSO, pH 7.4). […] The Kd values were determined with Biacore evaluation 3.1 software."}, "[2]": {"target": "T1, Nicastrin (NCT) (Homo sapiens, UniProt Q92542)", "T1 construct": "Full length human NCT was purified as described previously; 6×His (C); FLAG (C); made in house; host or cells: High Five insect cells (baculovirus made in Sf9)", "T1 sequence (Q92542 34-709)": "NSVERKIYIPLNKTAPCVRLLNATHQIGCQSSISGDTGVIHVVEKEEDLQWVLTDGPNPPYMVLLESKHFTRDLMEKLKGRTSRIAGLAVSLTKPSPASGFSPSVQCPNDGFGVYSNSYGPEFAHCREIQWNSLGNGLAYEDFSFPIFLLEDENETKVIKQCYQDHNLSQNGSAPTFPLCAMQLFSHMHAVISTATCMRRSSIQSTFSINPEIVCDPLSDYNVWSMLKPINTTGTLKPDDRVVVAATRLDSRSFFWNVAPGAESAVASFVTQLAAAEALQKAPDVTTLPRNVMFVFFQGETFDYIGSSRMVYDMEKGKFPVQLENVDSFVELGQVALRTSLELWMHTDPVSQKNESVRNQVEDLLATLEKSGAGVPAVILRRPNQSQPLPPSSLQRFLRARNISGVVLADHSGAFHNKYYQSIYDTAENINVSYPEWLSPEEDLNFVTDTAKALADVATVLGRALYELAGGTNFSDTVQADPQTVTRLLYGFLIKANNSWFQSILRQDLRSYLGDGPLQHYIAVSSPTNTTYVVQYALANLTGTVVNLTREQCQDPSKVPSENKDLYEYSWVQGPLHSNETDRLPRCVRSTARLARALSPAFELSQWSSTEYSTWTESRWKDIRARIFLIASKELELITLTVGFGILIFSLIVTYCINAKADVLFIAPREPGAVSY", "assay": "surface plasmon resonance, Nicastrin immobilized", "assay_type": "binding", "settings": "SPR, Biacore T100, CM5 chip; read-out: equilibrium dissociation constant (Kd), Nicastrin (NCT)", "description": "as §1, with “software. […]” for “software.”\nRecombinant bacmids were used to transfect Sf9 cells to make the baculovirus, which was then used to infect High Five suspension insect cells (Invitrogen). […]"}}, "note": "pKd: −log10 of the molar value. Several values for one entry are separate records, joined by “and”; a condition that tells them apart may be missing. Identical values can stand only once. Counter-ions that a name gives are not always drawn.", "data": [{"smiles": "CC(C)[C@@]1(NC(=O)[C@@H]2C[C@@H]3c4cccc5[nH]cc(c45)C[C@H]3N(C)C2)O[C@@]2(O)[C@@H]3CCCN3C(=O)[C@H](Cc3ccccc3)N2C1=O", "note": "[DHEC, Dihydroergocristine methanesulfonate salt]", "values": [{"measurement": "pKd", "setting": "[1]", "result": 7.59}, {"measurement": "pKd", "setting": "[2]", "result": "5.01 and ~5.00 and 5.00"}]}]}
